Results published in PubChem BioAssay (NCI).
Where “and” joins values, the source holds several entries; their conditions need not be identical. Equal entries are not always repeated.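 1) Cells in 96-well plates. 2) Compound, 48 h, 5 concentrations. 3) Linear interpolation between surrounding doses. 4) Unreached endpoint = highest concentration. GI50 = concentration required for 50% inhibition of growth. TGI marks complete inhibition of growth.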

What was measured:
Assay in all cases: DTP human tumour cell line panel, 48 h
HCC-2998 colon = system: HCC-2998 colon
NCI-H226 lung = system: NCI-H226 lung
HOP-92 NSCLC = system: HOP-92 NSCLC
786-0 renal = system: 786-0 renal
K-562 leukemia = system: K-562 leukemia
MDA-MB-231 breast = system: MDA-MB-231 breast
CCRF-CEM leukemia = system: CCRF-CEM leukemia
BT-549 breast = system: BT-549 breast
OVCAR-3 ovarian = system: OVCAR-3 ovarian
MCF7 breast = system: MCF7 breast

Row | SMILES | GI50 (HCC-2998 colon) | TGI (HCC-2998 colon) | GI50 (NCI-H226 lung) | TGI (NCI-H226 lung) | GI50 (HOP-92 NSCLC) | TGI (HOP-92 NSCLC) | GI50 (786-0 renal) | TGI (786-0 renal) | GI50 (K-562 leukemia) [µM] | TGI (K-562 leukemia) | GI50 (MDA-MB-231 breast) | TGI (MDA-MB-231 breast) | GI50 (CCRF-CEM leukemia) | TGI (CCRF-CEM leukemia) | GI50 (BT-549 breast) | TGI (BT-549 breast) | GI50 (OVCAR-3 ovarian) | TGI (OVCAR-3 ovarian) | GI50 (MCF7 breast) | TGI (MCF7 breast)
1 | NC(=S)N/N=C1\c2ccccc2-c2c(F)c(F)c(F)c(F)c21 | 3.11 µM | 9.37 µM | 13.1 µM | 28.9 µM | 6.33 µM | 19.9 µM | 6.56 µM | 20 µM | 2.09 | 6.61 µM | 4.21 µM | 10.7 µM | 1.09 µM | 3.95 µM | 4.92 µM | 10.7 µM | 2.06 µM | 3.88 µM | 2.39 µM | 14.3 µM
2 | CC1(C)N=C(N)N=C(N)N1c1ccc(Cl)cc1 | 2.01 µM | 11.1 µM | > 100 µM | > 100 µM | > 100 µM | > 100 µM | 0.414 µM | > 100 µM | 1.3 | > 100 µM | > 100 µM | > 100 µM | > 100 µM | > 100 µM | 14.6 µM | > 100 µM | 11.3 µM | > 100 µM | 4.88 µM | > 100 µM
3 | COC(=O)c1cc2oc(/C=C3/SC(=S)N(N)C3=O)cc2n1Cc1ccccc1 | 3.89 µM | 19.1 µM | 13.5 µM | 26.8 µM | 1.47 µM | 12.8 µM | 2.84 µM | 8.53 µM | 2.08 | > 21.7 µM | 8.66 µM | 26 µM | > 100 µM | > 100 µM | 3.5 µM | 26.7 µM | 2.17 µM | 6.73 µM | 1.5 µM | 6.93 µM
4 | CC(C)(C)c1cc(NC(=O)Nc2ccc(-c3cn4c(n3)sc3cc(OCCN5CCOCC5)ccc34)cc2)no1 | 14.1 µM and 11.7 µM and 7.03 µM | 61.5 µM and 52.3 µM and > 10 µM | 3.38 µM and 0.921 µM and 4.29 µM | 18.6 µM and 5.24 µM and > 10 µM | 3.25 µM and 0.398 µM and 1.59 µM | 14.8 µM and 5.01 µM and > 10 µM | 2.85 µM and 0.616 µM and 4.06 µM | 15.8 µM and 3.29 µM and > 10 µM | – | 11.9 µM and > 10 µM | 6.34 µM and 2.36 µM and 7.92 µM | 21 µM and 16.3 µM and > 10 µM | 0.18 µM and 1.49 µM | 18.6 µM and > 10 µM | 3.52 µM and 0.819 µM and 7.47 µM | 20.3 µM and 5.16 µM and > 10 µM | 6.61 µM and 1.54 µM and 6.76 µM | 19.4 µM and 8.38 µM and > 10 µM | 2.04 µM and 0.357 µM and 1.41 µM | 23.3 µM and 13.3 µM and > 10 µM
5 | Cn1c(=O)nc2n(-c3ccc(Cl)cc3)c3cc(Cl)ccc3nc-2c1=O | – | 14.1 µM | – | 42.5 µM | – | 18.5 µM | – | 23.7 µM | – | 5.41 µM | – | 6.91 µM | – | 33.2 µM | – | 7.17 µM | – | 4.19 µM | – | 2.8 µM
6 | C=CC(=O)N1C[C@@H]2CCOc3c(Cl)c(-c4c(O)cccc4F)c(F)c4ncnc(c34)N2C[C@H]1C | 15.2 µM | 28.8 µM | 13.1 µM | 45.2 µM | 17 µM | 39 µM | 14.7 µM | 29.4 µM | 8.72 | > 100 µM | 11.5 µM | 27.7 µM | 11.5 µM | > 100 µM | 2.48 µM | 12.9 µM | 6.11 µM | 18.5 µM | 14.1 µM | 34.5 µM
7 | O=C(COc1cccc(/C=C2\CSc3ccc(Cl)cc3C2=O)c1)c1ccc(Cl)cc1 | 10.7 µM | 22.6 µM | 13.4 µM | 44.4 µM | 0.666 µM | 9.8 µM | 14.5 µM | 29.5 µM | 1.83 | 4.53 µM | 2.93 µM | 16.5 µM | 1.66 µM | 4.22 µM | 15 µM | 28.8 µM | 3.8 µM | 13.6 µM | 2.12 µM | 10.4 µM
8 | O=C1CC(c2ccccc2)Cc2nc3ccc(Br)cc3cc21 (centres undefined) | 1.57 µM | 16.8 µM | 0.908 µM | > 20.3 µM | 0.45 µM | 46.1 µM | 0.667 µM | > 100 µM | 0.162 | > 100 µM | 0.65 µM | 96.3 µM | 0.0492 µM | > 100 µM | 0.589 µM | 15.9 µM | 0.304 µM | 1.14 µM | 2.75 µM | > 100 µM
9 | C#Cc1cccc(Nc2ncnc3ccc(OCCCCNCCS(C)(=O)=O)cc23)c1 | 7.83 µM | > 25 µM | > 19.6 µM | > 25 µM | 1.68 µM | 14.4 µM | 7.54 µM | > 25 µM | 6.25 | 14.6 µM | 5.11 µM | 11.7 µM | 7.65 µM | > 25 µM | 8.33 µM | > 25 µM | 6.5 µM | > 23.6 µM | 9.5 µM | > 25 µM
